Measurements: patent US6013659A, “Methods of reducing tumor colony number using novel benzothiazole compounds” (University of Pittsburgh, priority 1998, dated 2000)
Read-outs that look alike come from different tables or passages of the source.

Columns and labels:
[1] = system: B16 melanoma pulmonary metastases; test: Early B16 pulmonary metastasis model (Day 4 B16 Model), A-NK cell adoptive immunotherapy; format: in vivo, C57BL/6 mice; conditions: for effect on reduction of B16 melanoma pulmonary metastases mediated by A-NK cell adoptive immunotherapy: A-NK cells administered on day 4; for effect on anti-metastatic therapeutic effect of adoptively transferred A-NK cells: conclusion from the two examples; for significance of reduction in tumor burden (in words): compound B experiments (Table 2), three experiments
Experimental: The B16 F1 melanoma model system, herein after referred to as B16 melanoma model system, is recognized as being highly resistant to treatment with many standard clinically used anti-cancer agents. Therefore, it was selected for testing because it is known to be reflective of the clinical situation for advanced melanoma.
A-NK cells were prepared from mouse spleens. All procedures were carried out in a laminar flow hood using sterile reagents and equipment. Briefly, a single cell suspension was prepared by gently mashing the spleens through a 40 mesh stainless steel screen into complete media (CM) which consisted of RPMI 1640 supplemented with 10% heat-inactivated fetal bovine serum, 100 U/ml penicillin, 100 μg/ml streptomycin sulfate, 50 μg/ml gentamicin sulfate, 2 mM L-glutamine, 5×10^-5 M 2-mercaptoethanol and 1% MEM non-essential amino acids. The erythrocytes in the resulting suspension were lysed and the suspension was centrifuged and washed twice with CM. Splencytes were cultured in T-150 flasks at 1.5×10^8 per cells per flask (A flasks) in 50 ml of CM containing 6000 IU rhIL-2/ml. […] On day 6 the A-NK cells were harvested.
Referring to FIG. 1 which illustrated a flow diagram of procedures for tumor metastasis system, A-NK generation, therapy and analysis for arly B16 tumors used in the present invention. All experimental groups initially contained at least 7 animals. A-NK cell generation was started at day -2 and the culture was expanded on days 0 and 1 as described above.
Separately on day 0, B16 tumor cells (2×10^5 i.v.) were injected into C57BL/6 mice. On days 0, 1, 2, 3 and 4, a benzothiazole compound of formula I (100 mg/kg, p.o.) was administered to the mice. On day 3 some animals received cyclophosphamide (300 mg/kg., i.p.) which is a standard chemotherapeutic drug.
Control mice received injections of vehicle diluent (1% gum arabic). […] On day 10, the mice were sacrificed, their lungs removed and the rumor colonies counted.

[2] = system: B16 melanoma pulmonary metastases; conditions: 216 h
Experimental: A-NK cells were prepared from mouse spleens. All procedures were carried out in a laminar flow hood using sterile reagents and equipment. Briefly, a single cell suspension was prepared by gently mashing the spleens through a 40 mesh stainless steel screen into complete media (CM) which consisted of RPMI 1640 supplemented with 10% heat-inactivated fetal bovine serum, 100 U/ml penicillin, 100 μg/ml streptomycin sulfate, 50 μg/ml gentamicin sulfate, 2 mM L-glutamine, 5×10^-5 M 2-mercaptoethanol and 1% MEM non-essential amino acids. The erythrocytes in the resulting suspension were lysed and the suspension was centrifuged and washed twice with CM. Splencytes were cultured in T-150 flasks at 1.5×10^8 per cells per flask (A flasks) in 50 ml of CM containing 6000 IU rhIL-2/ml. After 2 days the media and the non-adherent cells from the A flasks were transferred into new T-150 flasks (25 ml per flask--B flasks) and fresh CM+IL-2 (25 ml) was placed in the A flasks. The next day (day 3) the non-adherent cells and media from the B flasks were transferred to an equal number of T-150 C flasks and fresh CM+IL-2 was placed on the B flasks. […]
On day 8, 3-4×10^7 A-NK cells plus 120,000 IU of IL-2 were adaptively transferred into tumor-bearing mice. […] On day 9, the mice were sacrificed, their lungs removed and the tumor colonies counted.

in vivo = test: in vivo; design: species or system mice; conditions: mouse, po, 100 mg/kg
Experimental: (§1) The compound B of the present invention has been tested for its pharmacokinetics and toxicity in mice. As shown in FIG. 3 peak levels of compound B occurred in the liver 1 h after p.o. administration of a single 100 mg/kg dose. […] Mice were dosed for 5 consecutive days with 0-300 mg/kg of compound B in 1% gum arabic (p.o.). Their weight was measured in 1 week intervals and at 4 weeks the animals were sacrificed and their organ weights measured.

[3] = Subacute toxicity study in mice; format: in vivo; conditions: 0-300 mg/kg p.o. for 5 consecutive days, in 1% gum arabic
Experimental: as §1

SMILES | effect on reduction of B16 melanoma pulmonary metastases mediated by A-NK cell adoptive immunotherapy [1] | reduction of tumor burden (average) ([1]; A-NK cells on day 4, compound A in combination with A-NK cells) | Number of Pulmonary Metastases (± standard deviation) ([1]; Table 1, experiment 1, Compound A + A-NK Cells (with IL-2), 100 mg/kg p.o. days 0-4, control 59 ± 41, *p < 0.05 vs. control) | Number of Pulmonary Metastases (± standard deviation) ([1]; Table 1, experiment 2, Compound A + A-NK Cells (with IL-2), 100 mg/kg p.o. days 0-4, control 32 ± 22, *p < 0.05 vs. control) | Number of Pulmonary Metastases (± standard deviation) ([1]; Table 1, experiment 3, Compound A + A-NK Cells (with IL-2), 100 mg/kg p.o. days 0-4, control 222 ± 74, **p < 0.02 vs. control) | effect on anti-metastatic therapeutic effect of adoptively transferred A-NK cells [1] | reduction of tumor burden (average) [2] | Number of Pulmonary Metastases (± standard deviation) ([1]; Table 2, experiment 1, Compound B + A-NK Cells (with IL-2), 100 mg/kg p.o. days 0-4, control 125 ± 66, *p < 0.05 vs. control) | Number of Pulmonary Metastases (± standard deviation) ([1]; Table 2, experiment 2, Compound B + A-NK Cells (with IL-2), 100 mg/kg p.o. days 0-4, control 187 ± 114, *p < 0.05 vs. control) | Number of Pulmonary Metastases (± standard deviation) ([1]; Table 2, experiment 3, Compound B + A-NK Cells (with IL-2), 100 mg/kg p.o. days 0-4, control 199 ± 45, **p < 0.001 vs. control) | significance of reduction in tumor burden (in words) [1] | Tmax (in vivo) | organ weight change ([3]; at 4 weeks) | body weight change ([3]; weekly weights to 4 weeks) | Number of Pulmonary Metastases (± standard deviation) ([1]; Table 1, experiment 1, given without compound A) | Number of Pulmonary Metastases (± standard deviation) ([1]; Table 1, experiment 2, given without compound A) | Number of Pulmonary Metastases (± standard deviation) ([1]; Table 1, experiment 3, given without compound A, cyclophosphamide *p < 0.05 vs. control) | Number of Pulmonary Metastases (± standard deviation) ([1]; Table 2, experiment 1, given without compound B) | Number of Pulmonary Metastases (± standard deviation) ([1]; Table 2, experiment 2, given without compound B) | Number of Pulmonary Metastases (± standard deviation) ([1]; Table 2, experiment 3, given without compound B)
COc1cccc2sc(-c3ccc(C(C)(C)C)cc3)nc12 [Compound A, 4-Methoxy-2-(4-t-butylphenyl)benzothiazole] | enhanced the reduction | 64% | 24 ± 19 | 13 ± 7 | 58 ± 35 | augment the anti-metastatic therapeutic effect | 38% | – | – | – | – | – | – | – | – | – | – | – | – | –
COc1cccc2sc(-c3ccc(C(F)(F)F)cc3)nc12 [Compound B, 4-Methoxy-2-(4-trifluoromethylphenyl) benzothiazole] | enhanced the reduction | – | – | – | – | augment the anti-metastatic therapeutic effect | – | 66 ± 39 | 88 ± 49 | 88 ± 60 | Significant reduction in tumor burden | 1 h | no significant difference | no significant difference | – | – | – | – | – | –
O=P1(N(CCCl)CCCl)NCCCO1 (centres unmarked) [Cyclophosphamide, cyclophosphamide, reference compound] | – | – | – | – | – | – | – | – | – | – | neither A-NK cells alone or cyclophosphamide yielded a significant reduction in tumor burden | – | – | – | 33 ± 25 | 18 ± 12 | 81 ± 60 | 135 ± 55 | 156 ± 120 | 272 ± 110
